Experiments:
Rat pharmacokinetics = format: in vivo
[1] = tested on: CD86 surface expression on B cells; experiment: cells; settings: Mus musculus, B-cell, read-out: CD86 IC50
physchem = settings: pH 7.4, Sol. (kinetic solubility)
[2] = MDCK, A to B
[3] = human hepatocytes
[4] = rat hepatocytes
[5] = tested on: collagen-induced arthritis (CIA) model in Lewis rat; settings: 0.05 mg/kg daily, days 10–17

SMILES | Perm. [2] | HHep (projected hepatic clearance) [3] | RHep (projected hepatic clearance) [4] | also measured
Cn1cc(-c2cccc(N3CCc4c(sc5c4CC(C)(C)C5)C3=O)c2CO)cc(Nc2ccncn2)c1=O [compound 7] |  |  |  | Rat CL (total clearance) (Rat pharmacokinetics; 1 mg/kg i.v.): 16 mL/min/kg; clearance (Rat pharmacokinetics; in vivo, iv, 1 mg/kg): 16 mL/min/kg; bioavailability (Rat pharmacokinetics; in vivo, po, 5 mg/kg, pH 3): 37%
Cn1cc(-c2cccc(N3CCc4cc(C(C)(C)C)ccc4C3=O)c2CO)cc(Nc2ccncn2)c1=O [compound 9] |  |  |  | IC50 [1]: < 100 nM; solubility kinetic (physchem): < 2 µM
CN1CCN(c2ccc(Nc3cc(-c4cccc(N5CCn6c(cc7c6CCCC7)C5=O)c4CO)cn(C)c3=O)nc2)CC1 [compound 17] | MOD (MOD: 1–10 (10^–6 cm/s)) | 10 | 12 | 
Cn1cc(-c2cccc(N3CCn4c(cc5c4CCCC5)C3=O)c2CO)cc(Nc2ccc(N3CCN(C4COC4)CC3)cn2)c1=O [compound 18] | MOD (MOD: 1–10 (10^–6 cm/s)) | < 6 | < 10 | 
CN1CCN(c2ccc(Nc3cc(-c4cc(F)cc(N5CCn6c(cc7c6CCCC7)C5=O)c4CO)cn(C)c3=O)nc2)CC1 [compound 19] | MOD (MOD: 1–10 (10^–6 cm/s)) | < 6.2 | < 10.1 | 
Cn1cc(-c2cc(F)cc(N3CCn4c(cc5c4CCCC5)C3=O)c2CO)cc(Nc2ccc(N3CCN(C4COC4)CC3)cn2)c1=O [compound 20] | HIGH (HIGH: >10 (10^–6 cm/s)) | < 6 | < 10 | 
C[C@@H]1C[C@H]2[C@@H]3CCC4=CC(=O)C=C[C@]4(C)[C@@]3(F)[C@@H](O)C[C@]2(C)[C@@]1(O)C(=O)CO [dexamethasone] |  |  |  | ankle diameter [5]: significantly (by ANOVA) reduced toward normal
